Legend:
[1] = tested on: E. coli NDM-1 strain; assay: microbe, parasite or virus in culture; assay type: cell-based; settings: for MIC: Escherichia coli, NDM1STRAIN, read-out: NDM-1 MICs, Tested; for NDM-1 MICs, Tested: for piperacillin-tazobactam the piperacillin concentration
[2] = tested on: Klebsiella pneumoniae NDM-1 clinical isolate; settings: original Klebsiella pneumoniae NDM-1 isolate; cited from earlier work
[3] = tested on: aTc-inducible pLtetO promoters; assay: aTc induction of GFP/mCherry pairwise combinations; assay type: cell-based, E. coli; settings: DH5a colonies, increasing concentrations of aTc
Excerpt: Next, to test gene expression, a barcoded vector library of GFP and mCherry was constructed under the control of aTc-inducible pLtetO promoters with a T1+T7 fusion terminator downstream of each ORF. Each vector contained the high-copy ColE1 origin, tetR under control of a constitutive promoter, and cat conferring chloramphenicol resistance.
An insert library was generated via PCR, creating a pairwise combinatorial set as in FIG. 5 that was then transformed into DH5a cells. Twenty-four colonies were isolated and grown in increasing concentrations of aTc along with positive and negative controls (FIG. 7).

[4] = tested on: Tet-ON expression system (rtTA); assay: Tet-ON induction tested with fluorescent proteins (eGFP, mCherry); assay type: cell-based; settings: yeast strains with integrated rtTA
Excerpt: (§1) The repetitive Aβ or αSyn expression array was integrated in yeast genome (the W303 background) and controlled by galactose induction. FIG. 28 depicts a yeast strain generated by integrating multiple tandem copies of αSyn with a galactose (Gal)-inducible promoter. In order to minimize the size of plasmid backbone for library construction, the reverse tetracycline transactivator (rtTA), part of the Tet-ON expression system (Gossen, M. et al., Science […]:1766-9 (1995)), was integrated into both yeast strains. The Tet-ON induction was tested by using different fluorescent proteins (such as eGFP and mCherry), and consistently detected robust gene activation (about 50-fold increase) with doxycycline (Dox) treatment. […] Similarly, the rtTA was successfully integrated in wild-type strain (the BY4741 background) to study longevity.

[5] = tested on: yeast strains (Aβ or αSyn expression array, W303 background); assay: Cell growth and inducible amyloid toxicity of yeast model strains; assay type: cell-based; settings: yeast strains with integrated rtTA
Excerpt: as §1

Molecule | MIC [1] [µg/mL] | NDM-1 MICs, Previously Reported [2] [µg/mL] | NDM-1 MICs, Tested ([1]; E. coli NDM-1) [µg/mL] | other results
CC1(C)S[C@@H]2[C@H](NC(=O)[C@H](N)c3ccc(O)cc3)C(=O)N2[C@H]1C(=O)O [Amoxicillin] | > 512 | – | – | –
CO/N=C(\C(=O)N[C@@H]1C(=O)N2C(C(=O)O)=C(CSc3nc(=O)c(=O)[nH]n3C)CS[C@H]12)c1csc(N)n1 [Ceftriaxone] | > 128 | >32 | – | –
C[C@@H](O)[C@H]1C(=O)N2C(C(=O)O)=C(SCCN=CN)C[C@H]12 [Imipenem] | > 32 | – | – | –
Cc1c2c(c(O)c3c(O)cccc13)C(=O)[C@]1(O)C(O)=C(C(N)=O)C(=O)[C@@H](N(C)C)[C@@H]1C2 [aTc] | – | – | – | on/off ratios of induction [3]: 150-300 x
C[C@H]1c2cccc(O)c2C(=O)C2=C(O)[C@]3(O)C(=O)C(C(N)=O)=C(O)[C@@H](N(C)C)[C@@H]3[C@@H](O)[C@@H]21 [doxycycline] | – | – | – | Gene activation (Tet-ON induction) [4]: about 50 fold; Effect on cell growth or inducible amyloid toxicity [5]: neither the integrated rtTA nor the Dox treatment affects cell growth or the inducible amyloid toxicity
Colistin | – | 0.25 | <0.125 | –
Gentamicin | – | >10 | >256 | –
Piperacillin-Tazobactam | – | >128 | > 256 | NDM-1 MICs, Tested, tazobactam concentration ([1]; E. coli NDM-1, tazobactam part of piperacillin-tazobactam): 32 µg/mL

From patent publication US9315806B2, “Massively parallel combinatorial genetics” (Massachusetts Institute of Technology, priority 2012, dated 2016)
